Read-outs that look alike come from different tables or passages of the source.
How the values were obtained:
Format in all cases: cell-based
CDK2 = biological target: T1, CDK2 (Homo sapiens, UniProt P24941); assay: HiBit Assay Protocol for CDK2 (HIBIT protein quantification, degradation); conditions: HEK293-CDK2-Hibit cells, compound treatment for 6 hours; for DC50: ABS DC50
T1 construct: host or cells: HEK293-CDK2-Hibit
How it was run: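 DC50 comes from a fitted curve of remaining CDK2-HiBiT luminescence, referenced to DMSO-treated cells and medium-only wells. HEK293-CDK2-HiBiT cells, plated the previous night, received compounds in a 10-point, 3-fold series for 6 h before lysis with LgBiT-containing Nano-Glo HiBiT reagent.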

CDK9 = biological target: T2, CDK9 (Homo sapiens, UniProt P50750); assay: HiBit Assay Protocol for CDK9 (HIBIT protein quantification, degradation); conditions: HEK293-CDK9-Hibit cells, compound treatment for 6 hours; for Dmax: read-out: CDK9 HIBIT Protein Quantification Maximum; for DC50: ABS DC50
T2 construct: host or cells: HEK293-CDK9-Hibit
How it was run: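 Degradation read-out: luminescence after lytic HiBiT/LgBiT detection in HEK293-CDK9-HiBiT cells exposed 6 h to 10-point, 3-fold compound dilutions. Signal scaled between 0.1% DMSO-treated cells and medium alone; DC50 fitted from the curve.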

CCNE1 [1] = biological target: T3, CCNE1 (Homo sapiens, UniProt P24864); assay: HiBit Assay Protocol for CCNE1 (HIBIT protein quantification, degradation); conditions: HEK293-CCNE1-Hibit cells, compound treatment for 6 hours
T3 construct: host or cells: HEK293-CCNE1-Hibit
How it was run: (§1)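 Degradation readout: lytic Nano-Glo HiBiT luminescence after 6 h exposure of HEK293-CCNE1-HiBiT cells to 10-point, 3-fold serial dilutions. Signal was scaled between medium-only and DMSO-treated wells, and DC50 came from curve fits.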

CCNE1 [2] = biological target: T4, CCNE1 (Homo sapiens, UniProt P24864+P24941); assay: as above; conditions: HEK293-CCNE1-Hibit cells, compound treatment for 6 hours, ABS DC50
T4 construct: host or cells: HEK293-CCNE1-Hibit
How it was run: as §1

T4 sequence (P24864 whole entry, one chain of several): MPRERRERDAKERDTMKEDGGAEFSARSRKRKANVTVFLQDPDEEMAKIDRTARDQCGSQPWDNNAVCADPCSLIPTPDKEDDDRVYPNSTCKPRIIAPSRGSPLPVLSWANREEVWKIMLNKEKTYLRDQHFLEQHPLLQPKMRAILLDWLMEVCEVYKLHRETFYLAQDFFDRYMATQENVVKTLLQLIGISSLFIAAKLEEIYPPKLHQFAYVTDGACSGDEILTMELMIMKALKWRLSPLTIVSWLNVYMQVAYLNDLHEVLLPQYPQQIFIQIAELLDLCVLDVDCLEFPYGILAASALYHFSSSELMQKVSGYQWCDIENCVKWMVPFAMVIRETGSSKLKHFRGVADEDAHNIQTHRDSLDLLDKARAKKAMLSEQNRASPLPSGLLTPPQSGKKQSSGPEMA
T3 sequence (P24864 whole entry): as the sequence (P24864 whole entry, one chain of several) above
T2 sequence (P50750 whole entry): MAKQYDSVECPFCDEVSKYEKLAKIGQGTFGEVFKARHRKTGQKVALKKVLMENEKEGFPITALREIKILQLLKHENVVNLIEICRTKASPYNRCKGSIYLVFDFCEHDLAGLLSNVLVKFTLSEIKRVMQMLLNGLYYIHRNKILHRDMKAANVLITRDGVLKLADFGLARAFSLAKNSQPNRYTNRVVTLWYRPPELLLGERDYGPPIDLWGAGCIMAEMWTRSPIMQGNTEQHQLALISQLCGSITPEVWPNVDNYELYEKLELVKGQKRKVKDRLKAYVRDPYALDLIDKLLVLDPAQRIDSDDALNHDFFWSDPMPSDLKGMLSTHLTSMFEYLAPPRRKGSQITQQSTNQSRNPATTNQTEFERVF

CDK2 HIBIT Protein Quantification Maximum (CDK2) | DC50 (CDK2) | Dmax (CDK9; 6 h) | DC50 (CDK9) | CCNE1 HIBIT Protein Quantification Maximum (CCNE1 [1]) | DC50 (CCNE1 [2]) | Compound | Dmax (CDK9)
78% | 10 nM | 65% | 21.8 nM | 64% | 7.43 nM | CC1CCCC1N1C(=O)C2(CC2)c2cnc(Nc3ccc(S(=O)(=O)N(C)CCCN4CCC(c5cccc6c5n(C)c(=O)n6C5CCC(=O)NC5=O)CC4)cc3)nc21 (stereo not shown) [Compound 117, N-(3-(4-(1-(2,6-dioxopiperidin-3-yl)-3-methyl-2-oxo-2,3-dihydro-1H-benzo[d]imidazol-4-yl)piperidin-1-yl)propyl)-N-methyl-4-((7′-(2-methylcyclopentyl)-6′-oxo-6′,7′-dihydrospiro [cyclopropane-1,5′-pyrrolo[2,3-d]pyrimidin]-2′-yl)amino)benzenesulfonamide] | 
80% | 3.31 nM | 3% |  | 69% | 78.5 nM | C[C@H](c1cccc(S(=O)(=O)N2CCC(Nc3ncc4c(n3)N([C@@H]3CCC[C@@H](O)C3)C(=O)C43CC3)CC2)c1)N1CCC(c2ccc3c(N4CCC(=O)NC4=O)nn(C)c3c2)CC1 [Compound 151, 1-(6-{1-[(1R)-1-[3-(4-{7′-[(1R,3R)-3-hydroxycyclohexyl]-6′-oxospiro[cyclopropane-1,5′-pyrrolo[2,3-d]pyrimidin]-2′-ylamino}piperidin-1-ylsulfonyl)phenyl]ethyl]piperidin-4-yl}-1-methylindazol-3-yl)-1,3-diazinane-2,4-dione] | 
79% | 17.3 nM |  |  | 52.8% | 17.6 nM | C[C@H]1CCC[C@H]1N1C(=O)C2(CC2)c2cnc(NC3CCN(S(=O)(=O)N(C)CCCN4CCC(c5cccc6c5n(C)c(=O)n6C5CCC(=O)NC5=O)CC4)CC3)nc21 (stereo partly drawn) [Compound 13, N-(3-{4-[1-(2,6-Dioxopiperidin-3-yl)-3-methyl-2-oxo-1,3-benzodiazol-4-yl]piperidin-1-yl}propyl)-N-methyl-4-{7′-[(1R,2S)-2-methylcyclopentyl]-6′-oxospiro[cyclopropane-1,5′-pyrrolo[2,3-d]pyrimidin]-2′-ylamino}piperidine-1-sulfonamide] | 
86% | 14 nM | 81% | 74.9 nM | 75% | 23.2 nM | CN(CCCN1CCC(c2cccc3c2n(C)c(=O)n3C2CCC(=O)NC2=O)CC1)S(=O)(=O)c1ccc(Nc2ncc3c(n2)N([C@@H]2CCC[C@@H](O)C2)C(=O)C32CC2)cc1 (stereo partly drawn) [Compound 116, N-(3-(4-(1-(2,6-dioxopiperidin-3-yl)-3-methyl-2-oxo-2,3-dihydro-1H-benzo[d]imidazol-4-yl)piperidin-1-yl)propyl)-4-((7′-((1R,3R)-3-hydroxycyclohexyl)-6′-oxo-6′,7′-dihydrospiro[cyclopropane-1,5′-pyrrolo[2,3-d]pyrimidin]-2′-yl)amino)-N-methylbenzenesulfonamide] | 
82% | 4.8 nM | 46% |  | 52% | 8.09 nM | CC1CN(Cc2cccc(S(=O)(=O)N3CCC(Nc4ncc5c(n4)N([C@@H]4CCC[C@@H](O)C4)C(=O)C54CC4)CC3)c2)CCC1c1ccc2c(N3CCC(=O)NC3=O)nn(C)c2c1 (stereo partly drawn) [Compound 182, 1-[6-(1-{[3-(4-{7′-[(1R,3R)-3-Hydroxycyclohexyl]-6′-oxospiro[cyclopropane-1,5′-pyrrolo[2,3-d]pyrimidin]-2′-ylamino}piperidin-1-ylsulfonyl)phenyl]methyl}-3-methylpiperidin-4-yl)-1-methylindazol-3-yl]-1,3-diazinane-2,4-dione] | 
46% |  | 49% |  | 59% | 515 nM | CC1CCCC1N1C(=O)C2(CC2)c2cnc(NC3CCN(S(=O)(=O)N4CCC5(CCCN5C(=O)CCCCCc5cccc6c5n(C)c(=O)n6C5CCC(=O)NC5=O)C4)CC3)nc21 (stereo not shown) [Compound 36] | 
68% | 2.83 nM | 49% |  | 54% | 5.99 nM | Cc1c(CN2CCC(c3ccc4c(N5CCC(=O)NC5=O)nn(C)c4c3)CC2)cccc1S(=O)(=O)N1CCC(Nc2ncc3c(n2)N([C@@H]2CCC[C@@H](O)C2)C(=O)C32CC2)CC1 [Compound 159, 1-[6-(1-{[3-(4-{7′-[(1R,3R)-3-Hydroxycyclohexyl]-6′-oxospiro [cyclopropane-1,5′-pyrrolo[2,3-d]pyrimidin]-2′-ylamino}piperidin-1-ylsulfonyl)-2-methylphenyl]methyl}piperidin-4-yl)-1-methylindazol-3-yl]-1,3-diazinane-2,4-dione] | 
88% | 4.22 nM | 52% | 2170 nM | 53% | 23.6 nM | C[C@@H](c1cccc(S(=O)(=O)N2CCC(Nc3ncc4c(n3)N([C@@H]3CCC[C@@H](O)C3)C(=O)C43CC3)CC2)c1)N1CCC(c2ccc3c(N4CCC(=O)NC4=O)nn(C)c3c2)CC1 (single isomer, unassigned) [Compound 152] | 
85% | 2.63 nM | 12% |  | 54% | 6.18 nM | C[C@@H](C1CC1)N1C(=O)C2(CC2)c2cnc(NC3CCN(S(=O)(=O)c4cccc(CN5CCC(c6ccc7c(N8CCC(=O)NC8=O)nn(C)c7c6)CC5)c4)CC3)nc21 [Compound 164, 1-[6-(1-{[3-(4-{7′-[(1S)-1-Cyclopropylethyl]-6′-oxospiro[cyclopropane-1,5′-pyrrolo[2,3-d]pyrimidin]-2′-ylamino}piperidin-1-ylsulfonyl)phenyl]methyl}piperidin-4-yl)-1-methylindazol-3-yl]-1,3-diazinane-2,4-dione] | 
80% | 2.64 nM | 13% |  | 56% | 5.96 nM | Cn1nc(N2CCC(=O)NC2=O)c2ccc(C3CCN(Cc4cccc(S(=O)(=O)N5CC[C@@H](Nc6ncc7c(n6)N([C@@H]6CCC[C@@H](O)C6)C(=O)C76CC6)[C@H](F)C5)c4)CC3)cc21 [Compound 158] | 
89% | 3.81 nM | 13% |  | 61% | 9.88 nM | CC(c1cc(S(=O)(=O)N2CC[C@H](Nc3ncc4c(n3)N([C@@H]3CCC[C@@H](O)C3)C(=O)C43CC3)[C@H](F)C2)ccc1F)N1CCC(c2ccc3c(N4CCC(=O)NC4=O)nn(C)c3c2)CC1 (single isomer, unassigned) [Compound 200, 1-(6-{1-[(1R*)-1-{2-Fluoro-5-[(3R,4S)-3-fluoro-4-{7′-[(1R,3R)-3-hydroxycyclohexyl]-6′-oxospiro[cyclopropane-1,5′-pyrrolo[2,3-d]pyrimidin]-2′-ylamino}piperidin-1-ylsulfonyl]phenyl}ethyl]piperidin-4-yl}-1-methylindazol-3-yl)-1,3-diazinane-2,4-dione] | 
63% | 12 nM | 5% |  | 20% |  | CC1CCCC1N1C(=O)C2(CC2)c2cnc(NC3CCN(S(=O)(=O)N4CC5(CCCN(C(=O)CCc6cccc7c6n(C)c(=O)n7C6CCC(=O)NC6=O)C5)C4)CC3)nc21 (stereo not shown) [Compound 18] | 

Compound | CDK2 HIBIT Protein Quantification Maximum (CDK2) | DC50 (CDK2) | Dmax (CDK9; 6 h) | DC50 (CDK9) | CCNE1 HIBIT Protein Quantification Maximum (CCNE1 [1]) | DC50 (CCNE1 [2]) | Dmax (CDK9)
O=C1CCC(N2Cc3cc(CN4CC(Oc5cccc(S(=O)(=O)c6ccc(Nc7ncc8c(n7)N([C@@H]7CCC[C@@H](O)C7)C(=O)C87CC7)cc6)c5)C4)ccc3C2=O)C(=O)N1 (stereo partly drawn) [Compound 125, 3-[5-({3-[3-(4-{7′-[(1R,3R)-3-hydroxycyclohexyl]-6′-oxospiro[cyclopropane-1,5′-pyrrolo [2,3-d]pyrimidin]-2′-ylamino}benzenesulfonyl)phenoxy]azetidin-1-yl}methyl)-1-oxo-3H-isoindol-2-yl]piperidine-2,6-dione] | 54% | 4 nM |  |  | 81% | 2.35 nM | 13%
Cn1nc(N2CCC(=O)NC2=O)c2cccc(C3CCN(Cc4cccc(S(=O)(=O)N5CCC(Nc6ncc7c(n6)N([C@H]6CCC[C@H](O)C6)C(=O)C76CC6)CC5)c4)CC3)c21 (stereo in doubt) [Compound 146, 1-[7-(1-{[3-(4-{7′-[(1S,3S)-3-hydroxycyclohexyl]-6′-oxospiro[cyclopropane-1,5′-pyrrolo[2,3-d]pyrimidin]-2′-ylamino}piperidin-1-ylsulfonyl)phenyl]methyl}piperidin-4-yl)-1-methylindazol-3-yl]-1,3-diazinane-2,4-dione] | 76% | 30 nM |  |  | 82% | 36.2 nM | 4%

Reference: patent US20260070917A1, “CYCLIN DEPENDENT KINASE DEGRADERS AND METHODS OF USE THEREOF” (Differentiated Therapeutics Inc, priority 2023, published 2026)
